# Measured values as given in the supplement of paper PMC4862054.
# Tests used:
# Experiment in all cases: normalised response (% of control), CellTox Green; higher = less cell death (100 = DMSO, 0 = benzethonium chloride kill control)
# Conditions in all cases: incubation time: 72 h
# CAL-51 = test system: CAL-51
# Summary of the method: (§1)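 Compound was dispensed into 384-well plates at 5 concentrations in 10-fold steps spanning a 10,000-fold range specific to that compound. Breast cancer cell lines were added as 20 µl suspension and left for 72 h before CellTox Green fluorescence (485/520 nm) and then CellTiter-Glo luminescence, read after 10 min at room temperature. Each reported value is the normalised signal at one concentration, with 0.1 % DMSO set at 100 and a positive kill control at 0 on each plate.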
# HCC1599 = test system: HCC1599
# Summary of the method: as §1
# BT-549 = test system: BT-549
# Summary of the method: as §1
# MDA-MB-231 = test system: MDA-MB-231
# Summary of the method: as §1
# MDA-MB-453 = test system: MDA-MB-453
# Summary of the method: as §1
# DU-4475 = test system: DU-4475
# Summary of the method: as §1
# BT-474 = test system: BT-474
# Summary of the method: as §1
# CAL-85-1 = test system: CAL-85-1
# Summary of the method: as §1
# HCC1143 = test system: HCC1143
# Summary of the method: as §1
# MDA-MB-436 = test system: MDA-MB-436
# Summary of the method: as §1
# MFM-223 = test system: MFM-223
# Summary of the method: as §1
# MDA-MB-468 = test system: MDA-MB-468
# Summary of the method: as §1
# Hs578T = test system: Hs578T
# Summary of the method: as §1
SMILES,normalised response (CAL-51) [%],normalised response (HCC1599) [%],normalised response (BT-549) [%],normalised response (MDA-MB-231) [%],normalised response (MDA-MB-453) [%],normalised response (DU-4475) [%],normalised response (BT-474) [%],normalised response (CAL-85-1) [%],normalised response (HCC1143) [%],normalised response (MDA-MB-436) [%],normalised response (MFM-223) [%],normalised response (MDA-MB-468) [%],normalised response (Hs578T) [%]
CN1CCC(COc2cnc(-c3cccc(Cn4nc(-c5cccc(C#N)c5)ccc4=O)c3)nc2)CC1 (1000 nM),99.9,106,115,125,105,105,98.4,85,128,112,94,140,–
CN(C)C/C=C/C(=O)Nc1cc2c(Nc3ccc(F)c(Cl)c3)ncnc2cc1O[C@H]1CCOC1 [Afatinib] (1000 nM),106,104,107,117,97.1,106,52.4,66.4,–,102,99.8,110,–
CN1CC[C@H](c2c(O)cc(O)c3c(=O)cc(-c4ccccc4Cl)oc23)[C@H](O)C1 [Alvocidib] (1000 nM),77.1,50.4,83.2,30.7,97.7,85.3,90.2,24.9,85.1,80.5,56.6,109,65.7
CN1CC[C@H](c2c(O)cc(O)c3c(=O)cc(-c4ccccc4Cl)oc23)[C@H](O)C1 [Alvocidib] (10000 nM),63.9,86,66.1,25.4,102,94.9,88.8,-9.96,92.5,100,47.7,52.6,12.8
Nc1nc(Cl)nc2c1ncn2[C@H]1C[C@H](O)[C@@H](CO)O1 [Cladribine] (100 nM),109,98.3,127,–,108,103,99.7,104,119,73.8,78.7,72.2,98
Nc1nc(Cl)nc2c1ncn2[C@H]1C[C@H](O)[C@@H](CO)O1 [Cladribine] (1000 nM),107,96,86.3,86.3,101,100,102,83.4,–,85.4,74.4,50.6,111
Nc1ccn([C@@H]2O[C@H](CO)[C@@H](O)[C@@H]2O)c(=O)n1 [Cytarabine] (1000 nM),37.4,104,111,106,112,109,103,109,112,83.5,97.5,159,85.2
Nc1ccn([C@@H]2O[C@H](CO)[C@@H](O)[C@@H]2O)c(=O)n1 [Cytarabine] (10000 nM),26.1,95.5,99.4,113,104,101,100,91.7,64.6,93.6,107,156,134
Cc1c2oc3c(C)ccc(C(=O)N[C@@H]4C(=O)N[C@H](C(C)C)C(=O)N5CCC[C@H]5C(=O)N(C)CC(=O)N(C)[C@@H](C(C)C)C(=O)O[C@@H]4C)c3nc-2c(C(=O)N[C@@H]2C(=O)N[C@H](C(C)C)C(=O)N3CCC[C@H]3C(=O)N(C)CC(=O)N(C)[C@@H](C(C)C)C(=O)O[C@@H]2C)c(N)c1=O [Dactinomycin] (100 nM),29.5,75.9,33.4,17.9,98,81.8,76.7,31.6,91,89.8,78.6,56.9,26.1
Cc1c2oc3c(C)ccc(C(=O)N[C@@H]4C(=O)N[C@H](C(C)C)C(=O)N5CCC[C@H]5C(=O)N(C)CC(=O)N(C)[C@@H](C(C)C)C(=O)O[C@@H]4C)c3nc-2c(C(=O)N[C@@H]2C(=O)N[C@H](C(C)C)C(=O)N3CCC[C@H]3C(=O)N(C)CC(=O)N(C)[C@@H](C(C)C)C(=O)O[C@@H]2C)c(N)c1=O [Dactinomycin] (1000 nM),95.1,113,93,52.3,104,104,89.6,13.8,59.3,116,60.5,52.8,40.6
COc1cccc2c1C(=O)c1c(O)c3c(c(O)c1C2=O)C[C@@](O)(C(=O)CO)C[C@@H]3O[C@H]1C[C@H](N)[C@H](O)[C@H](C)O1 [Doxorubicin] (100 nM),43.3,100,160,111,109,96.4,105,96.4,–,95.2,86.3,151,103
COc1cccc2c1C(=O)c1c(O)c3c(c(O)c1C2=O)C[C@@](O)(C(=O)CO)C[C@@H]3O[C@H]1C[C@H](N)[C@H](O)[C@H](C)O1 [Doxorubicin] (1000 nM),22.4,149,185,160,130,111,105,77.5,143,126,68,363,159
Cc1ccc(F)c(NC(=O)Nc2ccc(-c3cccc4[nH]nc(N)c34)cc2)c1 [Linifanib] (100 nM),101,106,110,116,108,107,101,96.3,122,66.4,103,66.5,66.5
